Results taken from US20240415124A1, “HERBICIDAL COMPOSITION CONTAINING 3-(2-CHLORO-4-FLUORO-5-(3-METHYL-2,6-DIOXO-4-TRIFLUOROMETHYL-3,6-DIHYDROPYRIMIDIN-1(2H)-YL)PHENYL)-5-METHYL-4,5-DIHYDROISOXAZOLE-5-CARBOXYLIC ACID ETHYL ESTER AND GLUFOSINATE-P AND USE THEREOF” (NANTONG JIANGSHAN AGROCHEMICAL & CHEMICALS CO., LTD., priority 2022, published 2024).

Test system: Erigeron canadensis
Test: Laboratory activity determination test (greenhouse pot test, stem and leaf spray, fresh weight inhibition, Gowing method)
Format: in vivo
Settings: single pesticide
Protocol: (1) Test objective: Inhibitory effects of 3-(2-chloro-4-fluoro-5-(3-methyl-2,6-dioxo-4-trifluoromethyl-3,6-dihydropyrimidin-1(2H)-yl)phenyl)-5-methyl-4,5-dihydroisoxazole-5-carboxylic acid ethyl ester, glufosinate-P and different mixed compositions of the two pesticides on Erigeron canadensis under potting conditions in a greenhouse are determined, and a combined action of the two pesticides is evaluated. […] After a pesticide liquid was air-dried, a test material was placed in a greenhouse for cultivation. […] A method for evaluating the combined action of the two pesticides after compounding was used with reference to a Gowing method in Pesticides Guidelines for Laboratory Bioactivity Tests: Determining Combined Action of Mixtures.
Fresh weight inhibition rate %=(fresh weight of a control group—fresh weight of a treatment group)/fresh weight of a control group*100.
When E-E0 is greater than −10 and less than 10, an additive effect is achieved. When E-E0 is equal to or less than −10, an antagonistic effect is achieved.

| SMILES | Measured control efficacy E (%) (dosage 1 g a.i./mu) | Measured control efficacy E (%) (dosage 2 g a.i./mu) | Measured control efficacy E (%) (dosage 3 g a.i./mu) | Measured control efficacy E (%) (dosage 4 g a.i./mu) | Measured control efficacy E (%) (dosage 5 g a.i./mu) | Measured control efficacy E (%) (dosage 8 g a.i./mu) | Measured control efficacy E (%) (dosage 12 g a.i./mu) | Measured control efficacy E (%) (dosage 16 g a.i./mu) | Measured control efficacy E (%) (dosage 20 g a.i./mu) | Measured control efficacy E (%) (dosage 24 g a.i./mu) |
| --- | --- | --- | --- | --- | --- | --- | --- | --- | --- | --- |
| CCOC(=O)C1(C)CC(c2cc(-n3c(=O)cc(C(F)(F)F)n(C)c3=O)c(F)cc2Cl)=NO1 (stereo not shown) [3-(2-chloro-4-fluoro-5-(3-methyl-2,6-dioxo-4-trifluoromethyl-3,6-dihydropyrimidin-1(2H)-yl)phenyl)-5-methyl-4,5-dihydroisoxazole-5-carboxylic acid ethyl ester] | 33.82 | 44.46 | 72.89 | 80.22 | 89.09 | – | – | – | – | – |
| CP(=O)(O)CC[C@H](N)C(=O)O [Glufosinate-P] | – | – | – | – | – | 21.63 | 51.94 | 67.92 | 74.07 | 78.07 |
